From US20240025883A1, “PYRIMIDIN-2-YL SULFONAMIDE DERIVATIVES” (Hoffmann-La Roche Inc., priority 2021, published 2024)

How the values were obtained:
[1] = Microsome clearance assay, rat; conditions: microsomes
Experimental: (§1) Incubations at a test compound of 1 mM in microsomes (0.5 mg/mL) plus cofactor NADPH are performed in 96 well plates at 37° C. on a TECAN (Tecan Group Ltd, Switzerland) automated liquid handling system. The final concentration of the test compound in the incubation is 1 microM. After a 10 minutes preincubation step of the test compound with the microsomes, the enzymatic reaction is started by the addition of cofactors. At 1, 3, 6, 9, 15, 25, 35 and 45 minutes, aliquots of the incubations are removed and quenched with 1:3 (v/v) acetonitrile containing internal standards. Samples are then cooled and centrifuged before analysis of the supernatant by LC-MS/MS.

[2] = Microsome clearance assay, mouse; conditions: microsomes
Experimental: as §1

[3] = Microsome clearance assay, human; conditions: microsomes
Experimental: as §1

[4] = molecular target: human GPR17 short isoform (Homo sapiens (Human), UniProt Q13304); experiment: GPR17 cAMP assay (hGPR17 cAMP, antagonist mode against EC80 of MDL29,951); type: cell-based; conditions: CHO-K1 cells stably expressing human GPR17 short isoform; EC80 of agonist MDL29,951; forskolin 15 μM
Sequence of human GPR17 short isoform (Q13304 29-367): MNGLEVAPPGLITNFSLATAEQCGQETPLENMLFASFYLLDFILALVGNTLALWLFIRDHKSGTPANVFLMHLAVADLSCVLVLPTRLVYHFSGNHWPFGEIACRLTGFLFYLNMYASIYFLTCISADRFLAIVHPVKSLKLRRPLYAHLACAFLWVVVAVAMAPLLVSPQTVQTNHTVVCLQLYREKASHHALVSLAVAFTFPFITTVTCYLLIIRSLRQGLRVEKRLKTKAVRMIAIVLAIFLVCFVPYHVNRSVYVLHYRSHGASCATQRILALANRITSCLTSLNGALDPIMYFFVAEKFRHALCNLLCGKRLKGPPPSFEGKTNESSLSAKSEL
Method in brief: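 cAMP was read by competitive TR-FRET after a 30 min room-temperature stimulation: antagonists plus EC80 MDL29,951 and 0.5 mM IBMX, followed 5 min later by 15 μM forskolin. Cells were CHO-K1 with stable human GPR17 short isoform in HBSS/HEPES/BSA, pH 7.4; percent activity versus reference antagonist fitted sigmoidally.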

[5] = microsomes, 1 µM
Experimental: as §1

[6] = microsomes, 1 µM; remark: listed apart in the source
Experimental: as §1

[7] = microsomes, 1 µM; remark: listed apart in the source
Experimental: as §1

Compound | microsomal CLint at 1 µM [1] [µL/min/mg] | microsomal CLint at 1 µM [2] [µL/min/mg] | microsomal CLint at 1 µM [3] [µL/min/mg] | IC50 [4] [nM] | other results
COc1nc(NS(=O)(=O)c2c[nH]c3cc(Cl)ccc23)ncc1Br [Example 22, N-(5-bromo-4-methoxy-pyrimidin-2-yl)-6-chloro-1H-indole-3-sulfonamide] | 10 | 10 | 10 | 515 | –
COc1nc(NS(=O)(=O)c2c[nH]c3c(F)c(Cl)ccc23)ncc1OCC(F)F [Example 123, 6-chloro-N-[5-(2,2-difluoroethoxy)-4-methoxy-pyrimidin-2-yl]-7-fluoro-1H-indole-3-sulfonamide] | 10 | 10 | 10 | 91 | –
COc1nc(NS(=O)(=O)c2c[nH]c3cc(Cl)ccc23)ncc1OCCF [Example 1, 6-chloro-N-[5-(2-fluoroethoxy)-4-methoxy-pyrimidin-2-yl]-1H-indole-3-sulfonamide] | 29 | 10 | 16 | 69 | –
COc1nc(NS(=O)(=O)c2c[nH]c3cc(Cl)ccc23)c(F)cc1OCCF [RE-A, 6-chloro-N-[3-fluoro-5-(2-fluoroethoxy)-6-methoxy-2-pyridyl]-1H-indole-3-sulfonamide, reference compound] | 357 | 77 | 121 | – | –
N-(4-bromo-2-fluoro-5-methoxy-phenyl)-6-chloro-1H-indole-3-sulfonamide [RE-F] | – | – | – | – | Microsomal Clearance mouse [5]: 129 μL/min/mg protein; Microsomal Clearance human [6]: 29 μL/min/mg protein; Microsomal Clearance rat [7]: 166 μL/min/mg protein
COc1nc(NS(=O)(=O)c2c[nH]c3c(F)c(C(F)F)ccc23)nc(OC)c1OC(F)F [Example 249, N-[5-(difluoromethoxy)-4,6-dimethoxy-pyrimidin-2-yl]-6-(difluoromethyl)-7-fluoro-1H-indole-3-sulfonamide] | – | – | – | 36 | –
COc1nc(NS(=O)(=O)c2c[nH]c3cc(Br)ccc23)ncc1CC(F)F [Example 88, 6-bromo-N-[5-(2,2-difluoroethyl)-4-methoxy-pyrimidin-2-yl]-1H-indole-3-sulfonamide] | – | – | – | 33 | –
COc1nc(NS(=O)(=O)c2csc3cc(Br)ccc23)ncc1OCC(F)F [Example 157, 6-bromo-N-[5-(2,2-difluoroethoxy)-4-methoxy-pyrimidin-2-yl]benzothiophene-3-sulfonamide] | – | – | – | 176 | –
COc1nc(NS(=O)(=O)c2c[nH]c3cc(Cl)ccc23)ncc1OC(C)(F)F [Example 42, 6-chloro-N-[5-(1,1-difluoroethoxy)-4-methoxy-pyrimidin-2-yl]-1H-indole-3-sulfonamide] | – | – | – | 194 | –
CCOc1cnc(NS(=O)(=O)c2c[nH]c3cc(Cl)ccc23)nc1OC [Example 6, 6-chloro-N-(5-ethoxy-4-methoxy-pyrimidin-2-yl)-1H-indole-3-sulfonamide] | – | – | – | 129 | –
COc1nc(NS(=O)(=O)c2c[nH]c3nc(C)ccc23)nc(OC)c1OC(F)F [Example 286, N-[5-(Difluoromethoxy)-4,6-Dimethoxy-Pyrimidin-2-Yl]-6-Methyl-1H-Pyrrolo[2,3-b]Pyridine-3-Sulfonamide] | – | – | – | 203 | –
COc1nc(NS(=O)(=O)c2c[nH]c3cc(F)ccc23)ncc1CC(F)F [Example 140, N-[5-(2,2-difluoroethyl)-4-methoxy-pyrimidin-2-yl]-6-fluoro-1H-indole-3-sulfonamide] | – | – | – | 50 | –
CC#Cc1c(OC)nc(NS(=O)(=O)c2c[nH]c3cc(Cl)ccc23)nc1OC [Example 57, 6-chloro-N-(4,6-dimethoxy-5-prop-1-ynyl-pyrimidin-2-yl)-1H-indole-3-sulfonamide] | – | – | – | 34 | –

Further lines, with some results ahead:

microsomal CLint at 1 µM [1] [µL/min/mg] | microsomal CLint at 1 µM [2] [µL/min/mg] | microsomal CLint at 1 µM [3] [µL/min/mg] | IC50 [4] [nM] | Compound | other results
869 | 121 | 103 | – | COc1nc(NS(=O)(=O)c2c[nH]c3cc(Cl)ccc23)c(F)cc1CCC#N [RE-D, 6-chloro-N-[5-(2-cyanoethyl)-3-fluoro-6-methoxy-2-pyridyl]-1H-indole-3-sulfonamide, reference compound] | –
65 | 26 | 11 | – | COc1nc(NS(=O)(=O)c2c[nH]c3c(F)c(Cl)ccc23)c(F)cc1OCC(F)F [RE-B, reference compound] | –
33 | 10 | 10 | 31 | COc1nc(NS(=O)(=O)c2c[nH]c3cc(Cl)ccc23)ncc1CCC#N [Example 179, 6-chloro-N-[5-(2-cyanoethyl)-4-methoxy-pyrimidin-2-yl]-1H-indole-3-sulfonamide] | –
286 | 81 | 35 | – | COc1nc(NS(=O)(=O)c2c[nH]c3cc(Cl)ccc23)c(F)cc1CC(F)F [RE-C, 6-chloro-N-[5-(2,2-difluoroethyl)-3-fluoro-6-methoxy-2-pyridyl]-1H-indole-3-sulfonamide, reference compound] | –
110 | 10 | 10 | 19 | COc1nc(NS(=O)(=O)c2c[nH]c3cc(Cl)ccc23)ncc1CC(F)F [Example 47, 6-chloro-N-[5-(2,2-difluoroethyl)-4-methoxy-pyrimidin-2-yl]-1H-indole-3-sulfonamide] | –
– | – | – | 32 | COc1nc(NS(=O)(=O)c2c[nH]c3cc(Cl)ccc23)nc(OC)c1OC(F)F [Example 52, 6-chloro-N-[5-(difluoromethoxy)-4,6-dimethoxy-pyrimidin-2-yl]-1H-indole-3-sulfonamide] | –
– | – | – | 182 | COc1nc(NS(=O)(=O)c2c[nH]c3cc(Cl)ccc23)nc(OC)c1CC(C)(F)F [Example 63, 6-chloro-N-[5-(2,2-difluoropropyl)-4,6-dimethoxy-pyrimidin-2-yl]-1H-indole-3-sulfonamide] | –
– | – | – | 383 | COc1nc(NS(=O)(=O)c2c[nH]c3nc(C(F)F)ccc23)ncc1OC(F)(F)CF [Example 238, 6-(difluoromethyl)-N-[4-methoxy-5-(1,1,2-trifluoroethoxy)pyrimidin-2-yl]-1H-pyrrolo[2,3-b]pyridine-3-sulfonamide] | –
